Experimental data taken from patent publication US9266872B2, “2-hydroxyarylamide derivative or pharmaceutically acceptable salt thereof, preparation method thereof, and pharmaceutical composition for preventing or treating cancer containing same as active ingredient” (KOREA RESEARCH INSTITUTE OF BIOSCIENCE AND BIOTECHNOLOGY, priority 2011, dated 2016).

Molecular target: T1, TMPRSS4 serine protease (Homo sapiens, UniProt Q9NRS4)
T1 construct: TMPRSS4 serine protease domain (205th Val˜437th Leu) was cloned in pET21b/NdeI-XhoI; inferred from pET21b XhoI cloning and Ni-NTA purification) (C); made in house; host or cells: E. coli BL21 (DE3)
Experiment: Inhibitory effect on TMPRSS4 serine protease activity using peptide substrate
Type: biochemical
Settings: for inhibition at 30 µM: read-out: Intracellular protease activity Inhibition % 30 uM; for inhibition at 10 µM / Intracellular protease activity Inhibition % 10 uM: 10 uM compound; for inhibition at 10 µM: read-out: Intracellular protease activity Inhibition % 10 uM; for inhibition at 100 µM: 100 uM compound, read-out: Intracellular protease activity Inhibition % 100 uM
Experimental: TMPRSS4 serine protease domain (205th Val˜437th Leu) was cloned in pET21b/NdeI-XhoI, which was introduced in E. coli BL21 (DE3). At this time, FlagX2-enterokinase cleavage site ([…]; total 15 amino acids) was inserted in N-terminal of TMPRSS4 serine protease domain as shown in FIG. 1. The forward and reverse primers for PCR used for the cloning were presented by SEQ. ID. NO: 1 and NO: 2.
The cells were cultured in 10 ml of LB containing ampicillin at 37° C. overnight. IL of LB+ampicillin was added thereto, followed by further culture until OD reached 0.6˜0.8. 0.1 mM IPTG was added thereto, followed by further culture for 16 hours. Cell pellet was obtained, purified by Ni-NTA (Qiagen), and dialyzed. TMPRSS4 serine protease (pro-form) labeled with 2 mg of 2Xflag-enterokinase cleavage site was conjugated to Ni-NTA resin (4°, overnight). Enterokinase (NEB) was treated thereto at the concentration of 0.0002%/w/w at room temperature for 5 hours. The sample was washed, eluted with 50 mM imidazole in 20 mM of sodium phosphate buffer, and then dialyzed.
The protein activity was evaluated by measuring fluorescence shown during hydrolysis of the peptide. […] Reaction was induced after adding 100 μM of the peptide substrate into reaction buffer (50 mM Tris-HCl (pH 8.0), 10 mM CaCl2, 1 μM ZnCl2). Then, fluorescence was measured at 5 minutes interval (excitation 385 nm, emission 455 nm).
Then, fluorescence (excitation 385 nm/emission 455 nm) was measured at 5 minutes interval for 150 minutes. […] Dimethylsulfoxide (DMSO) was used as the negative control.

[1] = 30 uM compound, kallikrein peptide substrate 100 μM, DMSO negative control
[2] = kallikrein peptide substrate 100 μM, DMSO negative control

T1 sequence (Q9NRS4 205-437): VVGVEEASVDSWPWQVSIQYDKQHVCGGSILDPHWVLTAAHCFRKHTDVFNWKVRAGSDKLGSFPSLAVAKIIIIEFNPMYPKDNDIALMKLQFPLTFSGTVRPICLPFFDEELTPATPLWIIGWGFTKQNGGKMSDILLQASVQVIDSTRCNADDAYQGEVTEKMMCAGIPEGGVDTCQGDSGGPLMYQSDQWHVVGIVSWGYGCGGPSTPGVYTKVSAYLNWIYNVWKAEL

Row | inhibition at 30 µM [1] [%] | inhibition at 10 µM [2] [%] | Intracellular protease activity Inhibition % 10 uM [2] [%] | inhibition at 100 µM [2] [%] | Intracellular protease activity Inhibition % 30 uM [1] [%] | Compound | TMPRSS4 serine protease active form activity (hydrolysis of peptide substrate) (1 mM, trypsin and kallikrein peptide substrates)
1 | – | – | – | – | – | NCCc1ccc(S(=O)(=O)F)cc1 [AEBSF, reference compound] | inhibited
2 | 100 | – | – | – | – | O=C(Nc1cc(C(F)(F)F)cc(C(F)(F)F)c1)c1cc(Cl)cc(Cl)c1O [Example 2, N-(3,5-bis(trifluoromethyl)phenyl)3,5-dichloro-2-hydroxybenzamide] | –
3 | 64 | 0 | – | – | – | Cc1ccc(O)c(C(=O)Nc2cc(C(F)(F)F)cc(C(F)(F)F)c2)c1 [Example 3, N-(3,5-bis(trifluoromethyl)phenyl)-2-hydroxy-5-methylbenzamide] | –
4 | 86 | 51 to 100 | 64 | 98 | – | O=C(Nc1ccc(F)c(C(F)(F)F)c1)c1cc(Cl)ccc1O [Example 4, 5-chloro-N-(4-fluoro-3-(trifluoromethyl)phenyl)-2-hydroxybenzamide] | –
5 | 20 | 0 | – | – | – | O=C(Nc1cc(C(F)(F)F)cc(C(F)(F)F)c1)c1ccccc1O [Example 5, N-(3,5-bis(trifluoromethyl)phenyl)-2-hydroxybenzamide] | –
6 | 53 | 0 | – | – | – | COc1ccc(O)c(C(=O)Nc2cc(C(F)(F)F)cc(C(F)(F)F)c2)c1 [Example 7, N-(3,5-bis(trifluoromethyl)phenyl)-2-hydroxy-5-methoxybenzamide] | –
7 | 84 | 51 to 100 | 54 | – | – | O=C(Nc1cc(C(F)(F)F)cc(C(F)(F)F)c1)c1cc(Br)ccc1O [Example 9, N-(3,5-bis(trifluoromethyl)phenyl)-5-bromo-2-hydroxybenzamide] | –
8 | 91 | 37 | – | – | – | O=C(Nc1cccc(C(F)(F)F)c1)c1cc(Cl)ccc1O [Example 10, 5-chloro-N-(3-(trifluoromethyl)phenyl)-2-hydroxybenzamide] | –
9 | 47 | 12 | – | 88 | – | N#Cc1cccc(NC(=O)c2cc(Cl)ccc2O)c1 [Example 11, 5-chloro-N-(3-cyanophenyl)-2-hydroxybenzamide] | –
10 | 29 | – | – | 69 | – | N#Cc1ccc(NC(=O)c2cc(Cl)ccc2O)cc1 [Example 12, 5-chloro-N-(4-cyanophenyl)-2-hydroxybenzamide] | –
11 | 79 | 32 | – | – | – | O=C(Nc1cc(C(F)(F)F)cc(C(F)(F)F)c1)c1ccc(C(F)(F)F)cc1O [Example 13, N-(3,5-bis(trifluoromethyl)phenyl)-4-(trifluoromethyl)-2-hydroxybenzamide] | –
12 | 55 | 0 | – | – | – | O=C(Nc1cc(C(F)(F)F)cc(C(F)(F)F)c1)c1cc(F)ccc1O [Example 14, N-(3,5-bis(trifluoromethyl)phenyl)-5-fluoro-2-hydroxybenzamide] | –
13 | 100 | 22 | – | – | – | O=C(Nc1ccc(C(F)(F)F)cc1)c1cc(Cl)ccc1O [Example 15, 5-chloro-N-(4-(trifluoromethyl)phenyl)-2-hydroxybenzamide] | –
14 | – | – | 80 | 98 | 93 | O=C(Nc1ccc(Br)c(C(F)(F)F)c1)c1cc(Cl)ccc1O [Example 16, N-(4-bromo-3-(trifluoromethyl)phenyl)-5-chloro-2-hydroxybenzamine] | –
15 | 54 | 46 | – | – | – | O=C(Nc1cc(C(F)(F)F)ccc1C(F)(F)F)c1cc(Cl)ccc1O [Example 18, N-(2,5-bis(trifluoromethyl)phenyl)-5-chloro-2-hydroxybenzamine] | –
16 | 100 | 40 | – | – | – | O=C(Nc1cc(C(F)(F)F)ccc1Br)c1cc(Cl)ccc1O [Example 20, N-(2-bromo-5-(trifluoromethyl)phenyl)-5-chloro-2-hydroxybenzamide] | –
17 | 100 | – | – | – | – | O=C(Nc1cc(C(F)(F)F)ccc1F)c1cc(Cl)ccc1O [Example 21, 5-chloro-N-(2-fluoro-5-(trifluoromethyl)phenyl)-2-hydroxybenzamide] | –
